Laboratory results reported in patent US20240180920A1, “CERTAIN FASCIN BINDING COMPOUNDS FOR SPINOGENESIS” (Spinogenix, Inc., priority 2021, published 2024).

Assays:
[1] = test system: primary mouse hippocampal neurons; experiment: Synaptic density (colocalized PSD95/VGlut elements per length of dendrite) in treated neurons, FIG. 1; type: cell-based; conditions: 10 μM compared with 500 nM and 50 nM, 24 hours
Protocol: Specifically, primary mouse hippocampal neurons were treated on day 14 in culture with one of the four compounds, each at concentrations of 10 μM, 500 nM, and 50 nM, or with control (vehicle (0.1% DMSO)) for 24 hours. Following the treatments, neurons were fixed in 4% paraformaldehyde and processed for staining with phalloidin and immunolabeling with antibodies to the postsynaptic marker PSD95, and the presynaptic marker VGlut. Images were acquired using a laser scanning confocal microscope and analyzed for the number of colocalized pre and post synaptic elements per length of dendrite. Studies were performed across 3 biological preparations of primary neurons, with a minimum of 12 dendritic segments analyzed per treatment/prep. Graphing and statistical analyses of synaptic density data were performed with Prism software.

fascin = fascin (Homo sapiens, UniProt Q16658); conditions: stated as known; cited from earlier work
[2] = target: fascin actin-binding site 2 (Homo sapiens, UniProt Q16658); conditions: stated as known; cited from earlier work

| Structure (SMILES) | concentration dependence of activity (synaptic density) [1] | effect on fascin's actin-bundling activity (fascin) | interaction with or binding to fascin [2] |
| --- | --- | --- | --- |
| C/C(=N\NC(=N)N)c1cc(NC(=O)CCCCCCCCC(=O)Nc2cc(/C(C)=N/NC(=N)N)cc(/C(C)=N/NC(=N)N)c2)cc(/C(C)=N/NC(=N)N)c1 [semapimod] | higher activities at the concentration of 10 μM than at lower concentrations | – | – |
| N=C(N)NCCCCC(=O)Nc1cc(C(F)(F)F)cc(NC(=O)c2cc(C(=O)Nc3cc(C(F)(F)F)cc(NC(=O)CCCCNC(=N)N)c3O[C@@H]3CCNC3)ncn2)c1O[C@@H]1CCNC1 (racemic) [brilacidin] | higher activities at the concentration of 10 μM than at lower concentrations | – | – |
| CN(C)CCCN1c2ccccc2CCc2ccccc21 [imipramine] | higher activities at the concentration of 10 μM than at lower concentrations | interact or inhibit fascin's actin-bundling activity | known to interact with or bind fascin at actin-binding site 2 |
